Data from patent US8178506B2, “Oligomeric compounds and compositions for use in modulation of small non-coding RNAs” (Regulus Therapeutics Inc., priority 2003, dated 2012).
In the oligonucleotide strings, read from the 5' end, every base follows the letter of its sugar. An asterisk marks phosphorothioate; unmarked linkages are phosphodiester. Other units and linkages are bracketed, terminal groups are in braces. A string of capitals states the bases alone. e = 2'-O-(2-methoxyethyl) (MOE); [5mC] = 5-methylcytosine; d = 2'-deoxy (DNA)

Assays:
PEPCK-c = PEPCK-c mRNA expression in HepG2 cells; type: cell-based, human; conditions: for PEPCKc mRNA: four hours, UTC = 100; for PEPCKc mRNA expression: Experiment 2, insulin treated: HepG2 cells transfected with oligomeric compound, 1 nM insulin for four hours, UTC + 1 nM insulin = 100
follistatin = test: Follistatin mRNA expression in HepG2 cells; type: cell-based, human; conditions: for Follistatin mRNA: four hours, UTC = 100; for Follistatin mRNA expression: Experiment 2, insulin treated: HepG2 cells transfected with oligomeric compound, 1 nM insulin for four hours, UTC + 1 nM insulin = 100
[1] = system: BJ, B16-F10, T47D, T47Dp53 and HeLa cells; test: Cell cycle assay (propidium iodide flow cytometry), cell line panel; type: cell-based; conditions: 150 nM oligomeric compound, 4.5 μg/ml LIPOFECTIN, after 72 hours, propidium iodide flow cytometry
[2] = Experiment 1, basal (no insulin), HepG2, 100 nM oligomeric compound
[3] = Experiment 2, 1 nM insulin treated, HepG2, 100 nM oligomeric compound
[4] = HepG2 cells, Experiment 1, basal (no insulin)
[5] = Experiment 3, basal (no insulin), HepG2 cells, 48 hours post-transfection
[6] = Experiment 4, insulin-sensitization: HepG2 cells treated with 1 nM insulin for four hours, 48 h post-transfection, mRNA by real-time PCR

327878 (antisense e[5mC]*eT*eA*eG*eT*eG*eG*eT*e[5mC]*e[5mC]*eT*eA*eA*eA*e[5mC]*eA*eT*eT*eT*e[5mC]*eA*e[5mC]) [compound 327878]
PEPCK-c (% UTC) (PEPCK-c; [2]): 45 % UTC | PEPCK-c (% UTC) (PEPCK-c; [3]): 29 % UTC | Follistatin (% UTC) (follistatin; [2]): 124 % UTC | Follistatin (% UTC) (follistatin; [3]): 150 % UTC | G1 (percentage of cells in phase of the cell cycle) [1]: 39.1% | G2/M (percentage of cells in phase of the cell cycle) [1]: 20% | S (percentage of cells in phase of the cell cycle) [1]: 40.8% | SubG1 (percentage of cells in phase of the cell cycle) [1]: 17.3% | aneuploid (percentage of cells) [1]: 11.9%

327900 (antisense e[5mC]*eT*eG*e[5mC]*e[5mC]*eT*eG*eT*e[5mC]*eT*eG*eT*eG*e[5mC]*e[5mC]*eT*eG*e[5mC]*eT*eG*eT) [compound 327900]
PEPCKc mRNA (PEPCK-c; [4]): 88 | Follistatin mRNA (follistatin; [4]): 111

327913 (antisense eA*eA*e[5mC]*e[5mC]*eG*eA*eT*eT*eT*e[5mC]*eA*eA*eA*eT*eG*eG*eT*eG*e[5mC]*eT*eA*eG) [compound 327913]
PEPCK-c (% UTC) (PEPCK-c; [2]): 229 % UTC | PEPCK-c (% UTC) (PEPCK-c; [3]): 268 % UTC | Follistatin (% UTC) (follistatin; [2]): 115 % UTC | Follistatin (% UTC) (follistatin; [3]): 123 % UTC

327916 (antisense eT*eG*eG*e[5mC]*eA*eT*eT*e[5mC]*eA*e[5mC]*e[5mC]*eG*e[5mC]*eG*eT*eG*e[5mC]*e[5mC]*eT*eT*eA*eA) [compound 327916]
PEPCKc mRNA expression (PEPCK-c): 88 | PEPCKc mRNA (PEPCK-c; [4]): 88 | Follistatin mRNA expression (follistatin): 98 | Follistatin mRNA (follistatin; [4]): 108

327918 (antisense e[5mC]*eT*eA*eG*eT*eA*e[5mC]*eA*eT*e[5mC]*eA*eT*e[5mC]*eT*eA*eT*eA*e[5mC]*eT*eG*eT*eA) [compound 327918]
PEPCKc mRNA expression (PEPCK-c): 107 | PEPCKc mRNA (PEPCK-c; [4]): 81 | Follistatin mRNA expression (follistatin): 76 | Follistatin mRNA (follistatin; [4]): 75

327920 (antisense eG*eA*eG*eA*e[5mC]*e[5mC]*e[5mC]*eA*eG*eT*eA*eG*e[5mC]*e[5mC]*eA*eG*eA*eT*eG*eT*eA*eG*e[5mC]*eT) [compound 327920]
PEPCKc mRNA expression (PEPCK-c): 59 | PEPCKc mRNA (PEPCK-c; [4]): 52 | Follistatin mRNA expression (follistatin): 102 | Follistatin mRNA (follistatin; [4]): 99

327923 (antisense eG*eA*eA*eA*eG*eA*eG*eA*e[5mC]*e[5mC]*eG*eG*eT*eT*e[5mC]*eA*e[5mC]*eT*eG*eT*eG*eA) [compound 327923]
PEPCKc mRNA expression (PEPCK-c): 125 | PEPCKc mRNA (PEPCK-c; [4]): 83 | Follistatin mRNA expression (follistatin): 106 | Follistatin mRNA (follistatin; [4]): 86

327925 (antisense eT*eA*eG*e[5mC]*eT*eG*eG*eT*eT*eG*eA*eA*eG*eG*eG*eG*eA*e[5mC]*e[5mC]*eA*eA) [compound 327925]
PEPCK-c (% UTC) (PEPCK-c; [2]): 145 % UTC | PEPCK-c (% UTC) (PEPCK-c; [3]): 182 % UTC | Follistatin (% UTC) (follistatin; [2]): 110 % UTC | Follistatin (% UTC) (follistatin; [3]): 148 % UTC

327954 (antisense eA*e[5mC]*eA*eA*eA*eG*eT*eT*e[5mC]*eT*eG*eT*eG*eA*eT*eG*e[5mC]*eA*e[5mC]*eT*eG*eA) [compound 327954]
PEPCK-c (% UTC) (PEPCK-c; [2]): 79 % UTC | PEPCK-c (% UTC) (PEPCK-c; [3]): 102 % UTC | Follistatin (% UTC) (follistatin; [2]): 100 % UTC | Follistatin (% UTC) (follistatin; [3]): 105 % UTC

328114 (antisense eA*eA*eT*e[5mC]*eT*e[5mC]*eA*eT*eT*eT*eT*e[5mC]*eA*eT*eA*e[5mC]*eT*eT*eG*e[5mC]*eA) [compound 328114]
PEPCKc mRNA expression (PEPCK-c): 41 | Follistatin mRNA expression (follistatin): 81

328115 (antisense eA*eG*eA*eA*eG*eG*eT*eG*eG*eG*eG*eA*eG*e[5mC]*eA*eG*e[5mC]*eG*eT*e[5mC]*eA) [compound 328115]
PEPCKc mRNA expression (PEPCK-c): 59 | Follistatin mRNA expression (follistatin): 91

328125 (antisense eT*eA*eT*eG*eA*eA*eA*eT*eG*e[5mC]*e[5mC]*eA*eG*eA*eG*e[5mC]*eT*eG*e[5mC]*e[5mC]*eA) [compound 328125]
PEPCKc mRNA expression (PEPCK-c): 77 | Follistatin mRNA expression (follistatin): 107

328677 (eT*e[5mC]*e[5mC]*eT*eG*dG*dA*dT*dG*dA*dT*dA*dT*d[5mC]*dT*eA*e[5mC]*e[5mC]*eT*e[5mC]; antisense) [compound 328677]
PEPCK-c (% UTC) (PEPCK-c; [5]): 145 % UTC | PEPCK-c (% UTC) (PEPCK-c; [6]): 117 % UTC | Follistatin (% UTC) (follistatin; [5]): 130 % UTC | Follistatin (% UTC) (follistatin; [6]): 118 % UTC

328685 (e[5mC]*eG*eG*e[5mC]*e[5mC]*dG*dG*dA*dG*d[5mC]*d[5mC]*dA*dT*dA*dG*eA*e[5mC]*eT*e[5mC]*eG; antisense) [compound 328685]
PEPCK-c (% UTC) (PEPCK-c; [5]): 219 % UTC | PEPCK-c (% UTC) (PEPCK-c; [6]): 184 % UTC | Follistatin (% UTC) (follistatin; [5]): 100 % UTC | Follistatin (% UTC) (follistatin; [6]): 157 % UTC

328759 (antisense eG*eA*eG*eG*eG*dA*dT*dT*dG*dT*dA*dT*dG*dA*dA*e[5mC]*eA*eT*e[5mC]*eT) [compound 328759]
PEPCK-c (% UTC) (PEPCK-c; [5]): 98 % UTC | PEPCK-c (% UTC) (PEPCK-c; [6]): 92 % UTC | Follistatin (% UTC) (follistatin; [5]): 266 % UTC | Follistatin (% UTC) (follistatin; [6]): 224 % UTC

338664 (antisense e[5mC]*eA*eG*eA*e[5mC]*eT*e[5mC]*e[5mC]*e[5mC]*eA*eA*e[5mC]*eT*eG*eA*e[5mC]*e[5mC]*eA*eG*eA) [compound 338664]
PEPCK-c (% UTC) (PEPCK-c; [2]): 75 % UTC | PEPCK-c (% UTC) (PEPCK-c; [3]): 76 % UTC | Follistatin (% UTC) (follistatin; [2]): 93 % UTC | Follistatin (% UTC) (follistatin; [3]): 84 % UTC

340927 (antisense eT*eG*eA*eG*e[5mC]*dT*dA*d[5mC]*dA*dG*dT*dG*d[5mC]*dT*dT*e[5mC]*eA*eT*e[5mC]*eT*e[5mC]*eA) [compound 340927]
PEPCK-c (% UTC) (PEPCK-c; [2]): 87 % UTC | PEPCK-c (% UTC) (PEPCK-c; [3]): 103 % UTC | Follistatin (% UTC) (follistatin; [2]): 111 % UTC | Follistatin (% UTC) (follistatin; [3]): 128 % UTC

341800 (antisense AAGCCCAAAAGGAGAAUUCUUUG; all 2'-MOE, all phosphorothioate, methylation of C and T or U not given here) [compound 341800]
PEPCKc mRNA (PEPCK-c; [4]): 71 | Follistatin mRNA (follistatin; [4]): 105

341803 (antisense CCACACACTTCCTTACATTCCA; all 2'-MOE, all phosphorothioate, methylation of C not given here) [compound 341803]
PEPCKc mRNA (PEPCK-c; [4]): 110 | Follistatin mRNA (follistatin; [4]): 68

341804 (antisense ATCTGCACTGTCAGCACTTT; all 2'-MOE, all phosphorothioate, methylation of C not given here) [compound 341804]
PEPCKc mRNA (PEPCK-c; [4]): 44 | Follistatin mRNA (follistatin; [4]): 63

341805 (antisense ACCCTTATCAGTTCTCCGTCCA; all 2'-MOE, all phosphorothioate, methylation of C not given here) [compound 341805]
PEPCKc mRNA (PEPCK-c; [4]): 40 | Follistatin mRNA (follistatin; [4]): 63

341806 (antisense GCCAATATTTCTGTGCTGCTA; all 2'-MOE, all phosphorothioate, methylation of C not given here) [compound 341806]
PEPCKc mRNA (PEPCK-c; [4]): 79 | Follistatin mRNA (follistatin; [4]): 75

341807 (antisense CTGGGACTTTGTAGGCCAGTT; all 2'-MOE, all phosphorothioate, methylation of C not given here) [compound 341807]
PEPCKc mRNA (PEPCK-c; [4]): 97 | Follistatin mRNA (follistatin; [4]): 102
